In data set [1] the test system is H1299 cells. As to the kind of experiment: Adhesion assay. The following applies: H1299, fibronectin- and vitronectin-coated wells. The data set is classed as cell-based, human. The method, then: (§1) Adhesion Assay. 96-well plates were coated with 15 ng/μl fibronectin (Sigma, St. Louis, Mo.) at 4° C. overnight, then blocked with 0.5% BSA in PBS for 1 h. After starving with serum-free medium for 3 h, H1299 or MDA-MB-231 (2.5×10^5 cells/ml) were trypsinized and suspended in 100 μl of 0.1% FBS medium with various concentrations of uPAR compounds or DMSO control at 37° C. for 90 min. Medium was then carefully suctioned out from each well. Each well was washed three times with PBS. MTT-assay was used to determine the number of remaining cells (adherent cells).
(§2) The numbers of attached cells were quantified by MTT assay. Adherent cells are also quantified with fluorescence. […] The lack of inhibition was found both on fibronectin- and vitronectin-coated wells.

For data set [2], the system named is MDA-MB-231 cells. Description: Adhesion assay. The following applies: MDA-MB-231, fibronectin- and vitronectin-coated wells. The data set is classed as cell-based, human. As to the method:
as §1, §2

The test system of data set [3] is H1299 cells. As to the kind of experiment: Cytotoxicity (MTT). The data set is classed as cell-based, human. As to the method:
(§3) Transwell Migration Assay. A 24 well transwell plates (Costar, Corning, N.Y.) were coated with fibronectin. After 4 h of serum starvation, medium containing the same amount of compounds or DMSO were added to the upper chamber and incubated at 37° C. for 8 h. The number of migrated cells was counted in 10 separate 200×fields and averaged over three independent experiments. Cytotoxicity of the compounds on the cells was measured at the same concentrations used in the migration assay during the same incubation time. MTT was added 2 h before measuring.
(§4) A 24 well transwell plates (Costar, Corning, N.Y.) were coated with 30 ng/μl of fibronectin at 4° C. overnight. 500 μl of 10% FBS RPMI-1640 medium containing compounds or 1% DMSO control was added to the lower chamber. After 4 h of serum starvation, 5×10^4 cells in 250 μl of 0.1% FBS medium containing the same amount of compounds or DMSO were added to the upper chamber and incubated at 37° C. for 8 h. Non-invaded cells on the top of the transwell were scrapped-off with a cotton swab, and the cells that had migrated through the filter were fixed in methanol for 30 min, stained with Hematoxylin Stain (Fisher, SH30-500D) for 1 h. The number of migrated cells was counted in 10 separate 200×fields and averaged over three independent experiments. Cytotoxicity of the compounds on the cells was measured at the same concentrations used in the migration assay during the same incubation time, MTT was added 2 h before measuring.
(§5) Ten fields of unit area on each membrane were counted for cell numbers (magnification, 200×). […] The effect of the compound appears to be more pronounced in MDA-MB-231 cells compared with H1299. The level of toxicity of the compounds is measured at each concentration within the timescale of the invasion experiment to ensure that the observed effects are not due to cytotoxicity (FIG. 3(a)).

Data set [4] has as its system MDA-MB-231 cells. As to the kind of experiment: Cytotoxicity (MTT). The data set is classed as cell-based, human. The method, then:
as §3, §4, §5

In data set [5] the target is T1, uPAATF binding to uPAR (Homo sapiens, UniProt Q03405).
T1 construct: uPAR comprising amino acids 1-277 was expressed in Drosophila S2 cells; made in house; host or cells: Drosophila S2 cells (uPAR)
T1 sequence (Q03405 23-299): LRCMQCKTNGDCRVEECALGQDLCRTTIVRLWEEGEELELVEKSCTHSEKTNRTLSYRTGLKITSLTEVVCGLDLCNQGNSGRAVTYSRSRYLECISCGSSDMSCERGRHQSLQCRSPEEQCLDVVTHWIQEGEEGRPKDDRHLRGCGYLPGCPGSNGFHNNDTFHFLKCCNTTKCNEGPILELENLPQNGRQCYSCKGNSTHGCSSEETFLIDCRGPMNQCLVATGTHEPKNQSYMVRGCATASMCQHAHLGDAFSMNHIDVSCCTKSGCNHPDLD
Description: Microtiter-based uPAATF ELISA. To be noted: inhibition of uPAATF binding to uPAR.
Description: Microtiter-Based ELISA. The competition-binding assays were performed by incubating the proteins with inhibitors prior to binding to the immobilized proteins. Medium to high-binding microplates were coated and incubated for 1 hour at 4° C. with 100 μL of 2 μg/mL of uPAATF in 1×PBS for immobilization. A 1:1 mixture of Superblock® buffer in PBS (Thermoscientific) with 0.04 M NaH2PO4 and 0.3 M NaCl buffer were used for blocking Following the incubation and washing steps, uPA1310 biotinylated antibody (R&D Systems, MN) in 1% BSA 1×PBS buffer (100 μL/well) was added to the wells and incubated for 1-2 hours to allow for the detection of bound uPAR. In the presence of streptavidin-peroxidase and hydrogen peroxide signal was detected on an EnVision® Multilabel Plate Readers (PerkinElmer).

The test system of data set [6] is H1299 cells. Description: Transwell (Boyden chamber) migration assay. The format is cell-based, human. The method, then: as §3
as §4, with “Non-invaded cells on the top of the transwell were scrapped-off with a cotton swab, and the cells that had migrated through the filter were fixed in methanol for 30 min, stained with Hematoxylin Stain (Fisher, SH30-500D) for 1 h.” left out, “measuring. […]” for “measuring.”

Data set [7] relates to MDA-MB-231 cells. As to the kind of experiment: Transwell (Boyden chamber) migration assay. The data set is classed as cell-based, human. The method, then: as §3
as §4, with “Non-invaded cells on the top of the transwell were scrapped-off with a cotton swab, and the cells that had migrated through the filter were fixed in methanol for 30 min, stained with Hematoxylin Stain (Fisher, SH30-500D) for 1 h.” left out, “measuring. […]” for “measuring.”

Data set [8] has as its system H1299 cells. As to the kind of experiment: Immunofluorescence imaging of surface uPA and uPAR. The format is cell-based, human. The following applies: H1299, 100 μM, 30 min, vs DMSO control. The method, then: (§6) Immunofluorescence Imaging. An immunofluorescence approach was employed to establish the specificity of the compounds. This consisted of using a fluorescently labeled secondary antibody to probe for the presence of an anti-uPA antibody bound to uPA at the cell surface of MDA-MB-231 and H1299 cancer cells. […] Non-specific bindings were blocked with 5% normal goat serum, 5% BSA, 0.01% Triton X-100 in PBS at RT for 1 h, the cells were then incubated overnight at 4° C. with rabbit polyclonal anti-human uPA or mouse monoclonal anti-human uPAR antibodies (both at a dilution of 1:100 in 1% BSA/PBS). After another washing step with PBS three times, the cells were incubated with anti-rabbit IgG conjugated with Alexa 594 Texas Red (Invitrogen Corporation, Carlsbad, Calif.) or goat anti-mouse IgG conjugated with Alexa Fluor 488 (Invitrogen Corporation, Carlsbad, Calif.), both at a dilution of 1:1000 in 1% BSA/PBS at RT for 1 h in the dark. Images were acquired using a Nikon swept-filed confocal microscope.
(§7) Endogenous uPAR and uPA in the non-small cell lung cancer (NSCLC) cell line H1299 and in a breast cancer cell line MDA-MB-231 were immunostained with selective antibodies and visualized by staining with fluorescently-conjugated secondary antibodies. Cells are stained with (a) a monoclonal antibody against uPAR or (b) a polyclonal antibody against uPA.
(§8) In cells with clear surface staining, the surface of each cell was outlined using uPAR staining and then the pixel immunodensity for uPAR and uPA were determined using Nikon elements software in the outlined regions. Only cells where the cell membrane was clearly discernible were included in the analysis. Each value represents the mean±S.E. from 26-30 cells taken from three different fields from two independent samples. *significant difference from the DMSO control (p<0.001, Student's t test). In the absence of any compound (0.1% DMSO; vehicle control) both uPAR and uPA were detected in large intracellular clusters as well as on surface membranes of MDA-MB-231 cells.

Data set [9] has as its system MDA-MB-231 cells. Description: Immunofluorescence imaging of surface uPA and uPAR. The data set is classed as cell-based, human. To be noted: MDA-MB-231, 100 μM, 30 min, vs DMSO control. As to the method: as §6, §7, §8
The test system of data set [10] is H1299 cells. Description: Wound healing assay. The format is cell-based. The following applies: Homo sapiens, NCI-H1299, read-out: migration IC50. The method, then: Wound Healing Assay. Confluent cell monolayers in 12-well plates were wounded by scraping with a micropipette tip. The cells were washed and then cultured in complete media containing the compounds. The degree of wound closure was assessed in three randomly chosen regions by measuring the distance between the wound edges just after wounding and after 16 h under Nikon Diaphot 300 microscope.
Without being bound by theory, it is believed that, to invade neighboring tissue, cells must acquire additional motility, although invasion and migration may proceed through different mechanisms. […] The first uses the Boyden chamber apparatus to assess the effect of compound on migration primarily mediated by chemotaxis. […] The other approach to test for effects on migration was the wound healing assay, which probes migration mediated by a concentration gradient established by the wound. It is also not as sensitive to potential cytotoxic effects.

Entries after “also recorded” stand apart in the source; their conditions may differ.

For `CC1CC(C)CN(c2cc(Nc3ccccc3C(=O)O)c3c4c(onc24)-c2ccccc2C3=O)C1` (centres unmarked) [IPR-456], the cell adhesion entry in data set [1] and in data set [2] was “no effect on cell adhesion; also recorded: lack an effect” each time. Besides, the cytotoxicity result in data set [3] (H1299, cells harvested from migration assays) is on record as “none was observed”; in data set [3] (H1299, timescale of invasion experiment, concentrations reaching 200 μM) it was “did not exhibit undue toxicity”; in data set [4] (MDA-MB-231, cells harvested from migration assays) it was “none was observed”; in data set [4] (MDA-MB-231, timescale of invasion experiment, concentrations reaching 200 μM), “did not exhibit undue toxicity”. The IC50 in data set [5] was approximately 10 µM; in [10], approximately 150 µM. The “migration, Boyden chamber” value in data set [6] and in [7] was “blocked migration in a dose-dependent manner” each time. The “immunostaining pattern of uPAR” value in [8] and in [9] was “no change in the immunostaining pattern of uPAR” throughout. The “uPA staining at the cell surface” value in data set [8] and in data set [9] was “significant reduction of uPA staining at the cell surface; also recorded: impairs binding of uPA to uPAR at the cell membrane” in each case.
